The values below are quoted from earlier work in patent US20150050358A1, “IMPLANT SUPPORT COMPOSITION AND METHODS OF USE” (REGENTS OF THE UNIVERSITY OF MINNESOTA, priority 2013, published 2015).

The conditions of this series: antibiotic solution.

As for `Cc1ncc([N+](=O)[O-])n1CCO` [metronidazole], the pH of solution was 4.5-7.0 pH.
